{"source": "patent US7582762B2", "about": "“Salt and crystalline forms of (2R)-anti-5-{3-[4-(10,11-difluoromethanodibenzosuber-5-YL)piperazin-1-YL]-2-hydroxypropoxy}quinoline” (Eli Lilly and Company, priority 2001, dated 2009)", "key": {"[1]": {"experiment": "Moisture sorption profile over relative humidity", "format": "physicochemical", "settings": "over a wide range of relative humidity; compared with trihydrochloride salt/crystal (Form I)"}, "[2]": {"experiment": "Thermodynamic stability of salt and crystal forms", "settings": "for thermodynamic stability relative to trihydrochloride (Form I): compared with trihydrochloride salt/crystal (Form I), hydrochloride"}, "[3]": {"experiment": "Incorporation of organic solvents into the crystal lattice", "format": "physicochemical", "settings": "compared with trihydrochloride salt/crystal (Form I)"}}, "note": "Entries after “also recorded” stand apart in the source; their conditions may differ. Counter-ions that a name gives are not always drawn."}
{"smiles": "O[C@@H](COc1cccc2ncccc12)CN1CCN([C@@H]2c3ccccc3[C@@H]3[C@H](c4ccccc42)C3(F)F)CC1", "note": "[Form III, (2R)-anti-5-{3-[4-(10,11-difluoromethanodibenzosuber-5-yl)piperazin-1-yl]-2-hydroxypropoxy}quinoline 2.5 hydrochloride]", "values": [{"measurement": "moisture sorption (water sorbed)", "setting": "[1]", "result": "sorb less water overall over a wide range of relative humidity"}, {"measurement": "most stable form", "setting": "[2]; aqueous and acidic media", "result": "most stable in aqueous and acidic media"}, {"measurement": "thermodynamic stability relative to trihydrochloride (Form I)", "setting": "[2]", "result": "thermodynamically more stable than Form I; also recorded: thermodynamically more stable than the trihydrochloride salt and crystal"}, {"measurement": "incorporation of organic solvents", "setting": "[3]; hydrochloride", "result": "do not incorporate organic solvents as readily as Form I; also recorded: do not incorporate organic solvents as readily as the trihydrochloride salt and crystal"}]}
{"smiles": "O[C@@H](COc1cccc2ncccc12)CN1CCN([C@@H]2c3ccccc3[C@@H]3[C@H](c4ccccc42)C3(F)F)CC1", "note": "[Form II, (2R)-anti-5-{3-[4-(10,11-difluoromethanodibenzosuber-5-yl)piperazin-1-yl]-2-hydroxypropoxy}quinoline 2.5 hydrochloride]", "values": [{"measurement": "moisture sorption (water sorbed)", "setting": "[1]", "result": "sorb less water overall over a wide range of relative humidity"}, {"measurement": "thermodynamic stability relative to trihydrochloride (Form I)", "setting": "[2]", "result": "thermodynamically more stable than Form I; also recorded: thermodynamically more stable than the trihydrochloride salt and crystal"}, {"measurement": "most stable form", "setting": "[2]; organic solutions and solid state at ambient temperature/relative humidity", "result": "most stable in organic solutions and in the solid state at ambient temperature/relative humidity"}, {"measurement": "incorporation of organic solvents", "setting": "[3]; hydrochloride", "result": "do not incorporate organic solvents as readily as Form I; also recorded: do not incorporate organic solvents as readily as the trihydrochloride salt and crystal"}]}
{"smiles": "Cl.Cl.Cl.Cl.Cl.O[C@@H](COc1cccc2ncccc12)CN1CCN(C2c3ccccc3C3C(c4ccccc42)C3(F)F)CC1.O[C@@H](COc1cccc2ncccc12)CN1CCN(C2c3ccccc3C3C(c4ccccc42)C3(F)F)CC1", "note": "(stereo partly drawn) [2.5 salt, (2R)-anti-5-{3-[4-(10,11-difluoromethanodibenzosuber-5-yl)piperazin-1-yl]-2-hydroxypropoxy}quinoline 2.5 hydrochloride]", "values": [{"measurement": "moisture sorption (water sorbed)", "setting": "[1]", "result": "sorb less water overall over a wide range of relative humidity"}, {"measurement": "incorporation of organic solvents", "setting": "[3]", "result": "do not incorporate organic solvents as readily as the trihydrochloride salt and crystal"}]}
